Our source for the cytotoxicity values is ChEMBL document CHEMBL3507680, “University of Dundee, Gates Library screen for HepG2 cell viability”.

The structures appear in SMILES notation.

This data set is described as follows: Human HepG2 cell viability assay in 384 well format. In kind it is toxicity, cell-based. Further details: dose 125 nL, time 70.5 hour; cytotoxicity at 70.5 h: concentration not given beside the values. Particulars: HepG2 cells, read-out: Inhibition.
As to `N#Cc1c2n(c3c(=O)[nH]cnc13)CCCC2`, the cytotoxicity at 70.5 h is -6.51%. As for `CSc1ccc(C(=O)C2CCCN(C(=O)Cn3cnnn3)C2)cc1` (configuration not stated), the cytotoxicity at 70.5 h was -6.73%. For `CCCOCCN1CCc2[nH]c(-c3ccc(OC)cc3)nc2C1`, the cytotoxicity at 70.5 h was -17%. In the case of `CN(C)S(=O)(=O)N1C[C@@H]2CC[C@H](C1)N(Cc1ccc3[nH]ccc3c1)C2`, the cytotoxicity at 70.5 h was -5.61%.

As to `O=C(C1CNCCN1C(=O)CCOc1ccccc1)N1CCOCC1` (configuration not stated), the cytotoxicity at 70.5 h is 4.76%. For the compound `COc1cccc(CN(C)C(C)c2ccco2)c1OCCn1ccnc1` (configuration not stated), the cytotoxicity at 70.5 h was -6.31%.

Regarding `COCC(c1ccccn1)N(C)C(=O)c1cc(-c2ccccc2O)n[nH]1` (configuration not stated), the cytotoxicity at 70.5 h was -6.79%. Consider `CCc1[nH]c2c(CNC(=O)C3CCCN(C)C3)cc(C)cc2c1C` (configuration not stated), for which the cytotoxicity at 70.5 h was -4.96%. As to `N#Cc1cccc(OC23CCCN(CC2)C3)c1` (configuration not stated), the cytotoxicity at 70.5 h was determined as 13.6%. For `NCCN1C(=O)CC[C@H]2CN(Cc3ccc4occc4c3)CC[C@H]21`, the cytotoxicity at 70.5 h is -8.13%.

Regarding `Cn1ccnc1SCCNC(=O)c1cc(S(N)(=O)=O)ccc1F`, the cytotoxicity at 70.5 h is -9.32%. With `COc1ccc(C(=O)N2CCN(C(=O)CCCc3cn[nH]c3)CC2)cc1` the figure was -5.64%; with `Cc1cc(C)n(C2CCN(C(=O)CN3C(=O)CSc4ccccc43)C2)n1` (configuration not stated), 30.3%; with `CC(=O)NCCNCC1(O)CCCN(CCC2CCCCC2)C1=O` (configuration not stated), -1.79%. Regarding `O=C(O)c1cc(N2C[C@H](NC(=O)C3CCOCC3)[C@@H](C3CC3)C2)ccn1`, the cytotoxicity at 70.5 h is -11.7%. With `CC(=O)N1CCc2c(nc(N(C)C)nc2NCCC2CCCCO2)C1` (configuration not stated), the cytotoxicity at 70.5 h was -5.03%. As to `Cc1ccc(Cl)c(NC(=O)c2cccc(CN3CC[C@H](O)C3)c2)c1`, the cytotoxicity at 70.5 h is -5.5%. Take `Cc1cc(NCCNc2cccnc2)nc(N)n1`: the cytotoxicity at 70.5 h worked out at 12.3%. The result for `CN1CCC(c2n[nH]c(=O)n2-c2cccc(Cl)c2)CC1` reads 10.8%. Take `CCc1nc(C)c(CN2CCOC(Cc3cccc4ccccc34)C2)[nH]1` (configuration not stated): the cytotoxicity at 70.5 h was -2.51%. For `CC(Cc1cnccn1)NC(=O)c1cccc(CC2CCNCC2)c1` (configuration not stated), the cytotoxicity at 70.5 h was found to be 14%. For the compound `CCCN1CCCC2(CCN(c3nccc(OC)n3)C2)C1=O` (configuration not stated), the cytotoxicity at 70.5 h is 2.5%.

With `CC1(C)OC(=O)N(CC(=O)N2CCC(c3ccccc3F)C2)C1=O` (configuration not stated), the cytotoxicity at 70.5 h was -3.83%.

For the compound `CN(Cc1cc2n(n1)CCN(C(=O)[C@H]1CCCO1)C2)Cc1nccs1`, the cytotoxicity at 70.5 h was 46.3%. In the case of `O=C(NCc1cnn2cccnc12)C1CC(=O)N(Cc2cccnc2)C1` (configuration not stated), the cytotoxicity at 70.5 h was determined as 30.6%. For `Cc1cc(C2CCC2)nc(N2CCC3(CCCN(C)C3=O)C2)n1` (configuration not stated), the cytotoxicity at 70.5 h was -10.6%.

Turning to `Cn1cc(C2=CCN(CCCOc3ccc(C(N)=O)cc3)CC2)cn1`, the cytotoxicity at 70.5 h is -11.2%.

`O=C(CCn1cccc1)N1CCc2[nH]nc(COc3ccccc3)c2C1`: the cytotoxicity at 70.5 h was -7.09%. In the case of `CCn1c(N)nc2cc(C(=O)NCCNc3ncccc3C)cnc21`, the cytotoxicity at 70.5 h is -3.99%. Regarding `CNC(=O)CCN(C)c1nc(-c2ccncc2)nc2c1CCNC2`, the cytotoxicity at 70.5 h was -13.1%. In the case of `Nc1nnc(CCCNc2ncnc3c2CCN(C(=O)C2CC2)C3)s1`, the cytotoxicity at 70.5 h was -12%.

On to `CCCc1nc(C(=O)NCCCn2nnc3ccccc32)cs1`, for which the cytotoxicity at 70.5 h was -8.53%. The result for `O=C(C1CNCCN1C(=O)CCOc1ccccc1)N1CCCC1` (configuration not stated) reads -1.81%; that for `Cc1cnn(CCCn2c(C)cc(C(F)(F)F)cc2=O)c1`, -9.21%. In the case of `CCn1ccc(CN(C)C(=O)CSc2nnc(N)s2)n1`, the cytotoxicity at 70.5 h is -2.09%. `Cc1nn(C)cc1-c1ccnc(N(C)Cc2noc(C(C)C)n2)n1`: the cytotoxicity at 70.5 h was -2.05%. For `CCOC(=O)N[C@H]1C[C@@H](C(=O)NCCc2cccc(Cl)c2)N(C)C1`, the cytotoxicity at 70.5 h is -23.6%.

With `CCCc1ccc(CN2CCN(C(=O)C(C)C)[C@@H]3CS(=O)(=O)C[C@@H]32)o1`, the cytotoxicity at 70.5 h is -6.33%. `COc1ccc(-c2cc(-c3nc(CN4CCN(C)CC4)no3)[nH]n2)cc1`: the cytotoxicity at 70.5 h is -5.68%. In the case of `Cc1nonc1C(=O)N1CC[C@@]2(O)CCN(C3CCCCC3)C[C@H]2C1`, the cytotoxicity at 70.5 h is -9.95%.

For the compound `CCN1CC(C(=O)NCc2nc(C3CCCCC3)no2)CC1=O` (configuration not stated), the cytotoxicity at 70.5 h came out at 5.22%. The result for `O=C(Nc1ccccc1OCCc1ccccn1)N1CC[C@@H](O)C1` reads -31%.

As to `CC(C)n1ccnc1C1CCCN(c2cc(C(=O)NC3CC3)ccn2)C1` (configuration not stated), the cytotoxicity at 70.5 h was found to be 12.2%. With `CC(C)c1nc(-c2ccc(=O)[nH]n2)n(-c2ccc3c(c2)OCO3)n1`, the cytotoxicity at 70.5 h is -10.3%. With `CNc1ncc(C(=O)N2CCC(c3ccccc3C(=O)O)C2)cn1` (configuration not stated), the cytotoxicity at 70.5 h was -5.85%. Take `CC(C)(C)SCCN1CC(=O)N2CC[C@@H](O)C[C@H]2C1=O`: the cytotoxicity at 70.5 h was -9.74%. As for `CC(c1ccc(-c2cnc(N)nc2)cc1)N1CCOCC1` (configuration not stated), the cytotoxicity at 70.5 h is -3.76%.

`CN(C)C(=O)CN1CCN(c2ncccn2)[C@@H]2CS(=O)(=O)C[C@@H]21`: the cytotoxicity at 70.5 h is -3.2%. Regarding `Cc1ccc(C)c(NC(=O)N2CCC3(CC2)NC(=O)CC3C(=O)O)c1` (configuration not stated), the cytotoxicity at 70.5 h was -2.48%. Turning to `Cc1ccc(Oc2ncccc2CNC2CCCCC2)cn1`, the cytotoxicity at 70.5 h is -5.62%. Consider `Cc1cc(C)n(CC(C)NCCN2CCc3ccccc32)n1` (configuration not stated), for which the cytotoxicity at 70.5 h is -3.59%. The result for `CN(Cc1cc(C(C)(C)C)n[nH]1)C(=O)c1cn2ccsc2n1` reads -2.6%; that for `CCN(Cc1ccc(C)o1)C(=O)C(C)n1ccnc1C(C)C` (configuration not stated), -16.9%; that for `O=C1CN(CCCNS(=O)(=O)c2cccc(C(=O)NC3CC3)c2)CCN1`, -5.93%. Consider `CCc1nc2c(c(N3CCOCC3)n1)CCN(C(=O)N1CCCC1)CC2`, for which the cytotoxicity at 70.5 h is -6.31%. Take `CCCN1CCC(CC(=O)N[C@H](C(=O)O)c2cccc(F)c2F)CC1`: the cytotoxicity at 70.5 h was -8.2%.

As for `O=C(NCC(F)(F)C(F)F)c1cccnc1`, the cytotoxicity at 70.5 h is -3.25%. The result for `CN(C)C(=O)c1nc(CN2C(=O)OC[C@@H]2c2ccccc2)no1` reads 15.9%. On to `Cc1cccnc1N1CCN(C(=O)CCc2ccccn2)CC1`, for which the cytotoxicity at 70.5 h turned out to be 20.1%.

As to `Cc1nc(C(=O)N2CCC(c3nccn3Cc3ccncc3)CC2)cs1`, the cytotoxicity at 70.5 h is -5.72%.

In the case of `CCc1cc(NCc2cc3n(n2)CCCN(S(C)(=O)=O)C3)nc(C)n1`, the cytotoxicity at 70.5 h was -6.87%. Consider `COc1ccc(F)cc1C(C(=O)O)N1CCCN(C2CCCC2)CC1` (configuration not stated), for which the cytotoxicity at 70.5 h was -5.48%. With `COc1ccnc(CNc2nc(C)nc3ccsc23)c1` the figure was 3.18%. On to `CC(C)c1ocnc1C(=O)NC(c1nnc2n1CCNCC2)C(C)C` (configuration not stated), for which the cytotoxicity at 70.5 h is -16.6%. With `Cn1ncc2c(N3CCC(CCO)CC3)nc(C(C)(C)C)nc21` the figure was -2.67%; with `CSc1ccccc1C(C(=O)O)N(C)CC1CCOCC1` (configuration not stated), 3.4%. `Cc1cnc2c(C(=O)N3CCCC(OCc4ccccn4)C3)cnn2c1` (configuration not stated): the cytotoxicity at 70.5 h was -7.53%. For the compound `CC1CCCN1Cc1ccccc1-c1nc(C(C)(C)C)cc(=O)[nH]1` (configuration not stated), the cytotoxicity at 70.5 h was determined as 31.4%.

For the compound `Cc1cc(N(C)Cc2cc(C(C)(C)C)n[nH]2)nc(-c2cccnc2)n1`, the cytotoxicity at 70.5 h amounted to 41.6%.

Take `O=C1CCCN1CCCNCc1cc(O)c2cccc(Cl)c2n1`: the cytotoxicity at 70.5 h turned out to be 21%. `O=C(C(O)c1ccccc1Cl)N1CCCN(Cc2cccnc2)CC1` (configuration not stated): the cytotoxicity at 70.5 h is -4.87%. The result for `O=C(O)c1cccnc1CN1CCCC1CCc1ccccc1` (configuration not stated) reads -14.9%; that for `Cc1cc(C)cc(CN2CCN(Cc3cccc(CCN)c3)CC2=O)c1`, -10.8%; that for `CCOc1ccc(Cl)cc1C(C(=O)O)N1CCC(CO)CC1` (configuration not stated), 0.285%. In the case of `Cc1c[nH]c(CN2CCOC(c3ccc(Cl)c(Cl)c3)C2)c(C)c1=O` (configuration not stated), the cytotoxicity at 70.5 h amounted to 5.88%. The result for `O=C1CCCN1CCC1CCN(C2CCCNC2)CC1` (configuration not stated) reads -1.85%. On to `COc1ccc(NC(=O)N2CCOCC(CN(C)C)C2)c(C)c1` (configuration not stated), for which the cytotoxicity at 70.5 h was 17.5%. With `CN(Cc1ccno1)c1nc(C2CCCC2)nc2c1cnn2C` the figure was -2.09%. With `CCn1ncc2[nH]c(-c3ccc(OC)c(COC)c3)nc21`, the cytotoxicity at 70.5 h is -6.61%. The result for `CCCN(CCO)C(=O)C1CCC(=O)N(Cc2ccc(Cl)cc2)C1` (configuration not stated) reads -0.953%; that for `Cc1nc(N)nc(C)c1CC(=O)N1CCCCC1c1cccc(F)c1` (configuration not stated), -8.87%; that for `O=C(C1CC2(CCNCC2)CN1)N1CCN(c2ccccc2)CC1` (configuration not stated), 14.5%. On to `CC(=O)N1CCc2[nH]cnc2C12CCN(CC1CCOC1)CC2` (configuration not stated), for which the cytotoxicity at 70.5 h was -5.5%. On to `Cn1cnnc1SCC(=O)N1C[C@H]2CC[C@@H]1CN(Cc1cccnc1)C2`, for which the cytotoxicity at 70.5 h is -3.64%. With `CCCc1cc(C(=O)N2CCC3(CCCNC3=O)C2)cs1` (configuration not stated) the figure was -0.581%. On to `O=C(c1cccnc1O)N1CCOC(Cc2cccc(C(F)(F)F)c2)C1` (configuration not stated), for which the cytotoxicity at 70.5 h was -7%.

Consider `O=C(Cc1cccs1)N1CCCC(CNS(=O)(=O)Cc2ccccc2)C1` (configuration not stated), for which the cytotoxicity at 70.5 h was -5.58%. As for `COc1ccccc1OCc1cc(C(=O)N2[C@H](C)CC[C@@H]2C)n[nH]1`, the cytotoxicity at 70.5 h is -6.18%. As for `CCS(=O)(=O)N1CCCC(c2nccn2Cc2cccnc2)C1` (configuration not stated), the cytotoxicity at 70.5 h was -7.4%. For `O=C(Cc1cccnc1)N1C[C@@H]2CC[C@H](C1)N(Cc1ccccc1)C2=O`, the cytotoxicity at 70.5 h is -7.37%. With `CCc1nc2c(c(NCc3cc(-c4cccnc4)no3)n1)CCNCC2`, the cytotoxicity at 70.5 h was found to be 7.07%.

`O=C(O)Cc1cccc(-n2ccnc2-c2ccc(Cl)s2)c1`: the cytotoxicity at 70.5 h is -4.96%.

`CC(=O)Nc1ccc(CNC(=O)CNCc2snnc2C)cc1`: the cytotoxicity at 70.5 h was 15.4%. The result for `COCC1(CNc2cc(C(C)C)nc(N)n2)CC1` reads 2.2%. As to `COc1ccc(CCN2CCCC(CN(C)Cc3[nH]cnc3C)C2)cc1` (configuration not stated), the cytotoxicity at 70.5 h turned out to be 1.62%. The result for `CN(CC1CCCCO1)S(=O)(=O)c1cccc(C(=O)N2CCOCC2)c1` (configuration not stated) reads -10.5%. For the compound `C=C(C)COc1ccccc1CN1CCC(NC(C)=O)CC1`, the cytotoxicity at 70.5 h was found to be 25.2%.
